Data from patent US8158850B2, “Method to enhance yield and purity of hybrid crops” (priority 2007, dated 2012).
Values joined by “and” are separate entries in the source; they are usually repeats but may differ in a detail not shown here. Identical values can stand only once.

What was measured:
Type in all cases: in vivo, corn (Zea mays)
[1] = tested on: transgenic corn event GHS1 (LH198 germplasm crossed to LH287); test: Percent anther extrusion (AE %) at silk emergence after glyphosate treatment, field split plot test; settings: Event GHS-1
Description: (§1) Corn plants transformed with the DNA construct are produced and unique events that have the desired glyphosate tolerance phenotype are selected by treatment with glyphosate a various growth stages and at various rates of glyphosate. Optimal tassel and anther sensitivity to glyphosate can be determined by treatment with an effective dose of glyphosate during corn plant growth and then measuring the pollen shed or anther extrusion. Rapidly maturing corn inbred lines may have early tassel development and glyphosate treatments and rates can be adjusted as needed to produce male sterility in these inbred lines. Transgenic events for the glyphosate hybrid system were designated as event GHS1, GHS2 and GHS3, and selected by various glyphosate treatments to determine the rates and timing of glyphosate that provide the desired level of male sterility as measured by percent anther extrusion. Glyphosate was applied to a field containing the events using the following parameters: • Nozzle: Tee Jet Air Induction (AI) 110015-VS broadcast (green plus green adaptor) spaced on 30″ centers • GPA: 10-12 gallons per acre (GPA) • PSI: 30-35 pounds per square inch • Speed: 2-2.5 MPH • Nozzle Height: 16-18″ above “cup” of the whorl • Useful Conversions:
(§2) • Roundup Ultra®=3 lb acid equivalent (ae)/gal or 32 oz=0.75 lb ae/[…] • Roundup WeatherMax®—22 oz/acre=0.75 lb ae/acre • Nozzle calibration: Determine GPM (gallon per minute) output—Select nozzles and set PSI as specified above. Insure screens are all the same style and size. Collect output (30 sec minimum) of every nozzle at engine operating RPM equivalent to field conditions. Replicate 3 times for consistency and replace any nozzle with greater than +5% variation compared to other nozzles. Repeat until all nozzles are consistent. • Tractor speed—Determine sprayer speed in mph at above spray RPM. Measure off known distance (i.e. 100′) and measure 3 times for consistency. • Calibration of application equipment—The following formula was used to calculate spray output in GPA: GPA=5940×GPM (per nozzle), MPH×W; wherein W=Nozzle spacing (in inches) for broadcast spraying.
(§3) Transgenic events GHS1, GHS2, and GHS3 were treated with one or two applications of glyphosate (Roundup WeatherMax®) over the corn development stages V8-V12 (vegetative 8 leaf—vegetative 12 leaf). These development stages also correlate with pollen development in most inbred corn varieties. In this example, the transgenic events are in an LH198 germplasm crossed to LH287. The fertility score is a measure of the percent risk of anther extrusion (AE) observed at the time of silk emergence from the corn ear. The three events and a LH198DMSRR2 control (CMS germplasm with glyphosate tolerance) were treated with six glyphosate treatments (Table 4). The glyphosate treatments are single applications of 0.75 lb ae/ac at V8 stage (Trt 1), 0.75 lb ae/ac at V10 stage (Trt 2) and 0.54 lb ae/ac at V12 stage (Trt 3), and double applications of 0.75 lb ae/ac at V8 followed by 0.54 lb ae/ac at V12 (Trt 4), 0.75 lb ae/ac at V10 followed by 0.54 lb ae/ac at V12 (Trt 5), and 0.75 lb ae/ac at V8 followed by 0.75 lb ae/ac at V10 (Trt 6). The test was set up as a split plot design with 2 row plots and the glyphosate treatments applied in strips over all of the replications. FIG. 1 illustrates AE % as averaged across all spray treatments across each test plot and event.

[2] = tested on: LH198DMSRR2 control (CMS germplasm with glyphosate tolerance); test: as above
Description: as §1, §2, §3

[3] = tested on: transgenic corn event GHS3 (LH198 germplasm crossed to LH287); test: as above; settings: Event GHS-3
Description: as §1, §2, §3

[4] = tested on: transgenic corn event GHS2 (LH198 germplasm crossed to LH287); test: as above; settings: Event GHS-2
Description: as §1, §2, §3

[5] = tested on: hybrid seed production field, GHS1 or GHS2 female parent with MON88017 or nk603 male parent; test: Yield of the hybrid seed harvested from female rows of glyphosate-treated GHS fields; settings: for average yield of hybrid seed: GHS1 or GHS2 female, glyphosate V8 and V10 at 22 oz/ac, CMS-nk603 comparator yield 29.05 kg; for Average Wt (kg), yield of the hybrid seed: glyphosate treated V8-V10; for Total wt (KG), yield of the hybrid seed: glyphosate treated V8-V10 (22 oz/ac), seed harvested from female rows
Method: The yield of hybrid seed is important for maintaining profitability in hybrid seed production systems. […] GHS1 and GHS2 are used as the female parent in a hybrid seed production field with MON88017 or nk603 as the male parent. The GHS fields were treated with glyphosate (V8 and V10 at 22 oz/ac) and the seed harvested from the female rows. […] The average yield is 29.72 kilograms (kg) and 33.39 kg, respectively compared to the CMS-nk603 yield of 29.05 kg.

[6] = Trt 4: 0.75 lb ae/ac at V8 followed by 0.54 lb ae/ac at V12
[7] = Trt 5: 0.75 lb ae/ac at V10 followed by 0.54 lb ae/ac at V12
[8] = Trt 6: 0.75 lb ae/ac at V8 followed by 0.75 lb ae/ac at V10

O=C(O)CNCP(=O)(O)O [glyphosate, n-phosphonomethylglycine]
AE (%) ([1]; Trt 2: 0.75 lb ae/ac at V10): 0.0% | AE (%) ([1]; Trt 3: 0.54 lb ae/ac at V12): ~12.1% | AE (%) [1, 6]: 0.0% | AE (%) [1, 7]: 0.0% | AE (%) [1, 8]: 0.0% | AE (%) ([2]; Trt 1: 0.75 lb ae/ac at V8): 0.1% | AE (%) ([2]; Trt 2: 0.75 lb ae/ac at V10): 0.1% | AE (%) ([2]; Trt 3: 0.54 lb ae/ac at V12): 0.1% | AE (%) [2, 6]: ~0.3% | AE (%) [2, 7]: ~0.3% | AE (%) [2, 8]: 0.0% | AE (%) ([3]; Trt 1: 0.75 lb ae/ac at V8): ~5.9% | AE (%) ([3]; Trt 2: 0.75 lb ae/ac at V10): 0.1% | AE (%) [3, 6]: 0.0% | AE (%) [3, 7]: 0.0% | AE (%) [3, 8]: 0.0% | AE (%) ([4]; Trt 1: 0.75 lb ae/ac at V8): 0.4% | AE (%) ([4]; Trt 2: 0.75 lb ae/ac at V10): 0.0% | AE (%) ([4]; Trt 3: 0.54 lb ae/ac at V12): ~3.0% | AE (%) [4, 6]: 0.0% | AE (%) [4, 7]: 0.0% | AE (%) [4, 8]: 0.0% | average yield of hybrid seed ([5]; MON88017 male): 29.72 kg | average yield of hybrid seed ([5]; nk603 male): 33.39 kg | Average Wt (kg), yield of the hybrid seed ([5]; female GHS1, average over MON88017 and NK603 male parents): 29.72 kg | Total wt (KG), yield of the hybrid seed ([5]; female GHS1, male MON88017): 25.9 kg and 31.5 kg | Total wt (KG), yield of the hybrid seed ([5]; female GHS1, male NK603): 32.16 kg and 29.35 kg | Average Wt (kg), yield of the hybrid seed ([5]; female GHS2, average over MON88017 and NK603 male parents): 33.39 kg | Total wt (KG), yield of the hybrid seed ([5]; female GHS2, male MON88017): 27.5 kg and 35.74 kg | Total wt (KG), yield of the hybrid seed ([5]; female GHS2, male NK603): 38.67 kg and 31.66 kg
